For 3 compounds, IC50, Activity and Drug uptake results are on record in ChEMBL document CHEMBL3351492, “Novel 3,6-bis(imidazolidine)acridines as effective photosensitizers for photodynamic therapy” (Bioorg Med Chem, 2014).

Calls of active or inactive are those of the source. No cut-off for these calls is given here.

For data set [1], the system named is A2780. As to the kind of experiment: Cytotoxicity against human A2780 cells assessed as inhibition of cell viability for 48 hrs in dark by MTT assay. The format is functional, cell-based. The conditions noted are these: A2780, 48 h. In general terms: Tetrazolium dyes change colour on reduction, which living cells bring about.
Data set [2] has as its system A2780. The data set is described as follows: Cytotoxicity against human A2780 cells assessed as inhibition of cell viability for 48 hrs in 1.05 J/cm'2 UV-A irradiation by MTT assay. The format is functional, cell-based. Conditions: A2780, light or radiation study.
The test system of data set [3] is A2780. As to the kind of experiment: Cytotoxicity against human A2780 cells assessed as inhibition of cell viability for 72 hrs in dark by MTT assay. It is filed as functional, cell-based. The conditions noted are these: A2780, 72 h.
For data set [4], the system named is A2780. The data set is described as follows: Cytotoxicity against human A2780 cells assessed as inhibition of cell viability for 72 hrs in 1.05 J/cm'2 UV-A irradiation by MTT assay. It is filed as functional, cell-based. Conditions: A2780, light or radiation study.
In data set [5] the test system is L1210. As to the kind of experiment: Cytotoxicity against mouse L1210 cells assessed as inhibition of cell viability for 48 hrs in 1.05 J/cm'2 UV-A irradiation by MTT assay. The format is functional, cell-based. Conditions: L1210, light or radiation study.
Data set [6] relates to L1210. The data set is described as follows: Cytotoxicity against mouse L1210 cells assessed as inhibition of cell viability for 72 hrs in 1.05 J/cm'2 UV-A irradiation by MTT assay. The conditions noted are these: L1210, light or radiation study. The format is functional, cell-based.
Data set [7] has as its system A2780. As to the kind of experiment: Induction of oxidative stress in human A2780 cells assessed as reactive oxygen species production at 0.5 uM for 1 hr in 1.05 J/cm'2 UV-A irradiation by DHE assay. It is filed as functional, cell-based.
Data set [8] deals with A2780. The data set is described as follows: Genotoxicity in human A2780 cells assessed as DNA damage at 0.05 to 1 uM for 1 hr in 1.05 J/cm'2 UV-A irradiation measured after 12 hrs by comet assay. Conditions: a2780, 1 h. It is filed as toxicity, cell-based.
The test system of data set [9] is A2780. The data set is described as follows: Drug uptake in human A2780 cell autophagic vacoules at 0.5 uM irradiated for 1 hr followed by incubated with LysoTracker relative to non-irradiated cellsin presence of MDC. The format is ADME, cell-based. Conditions: a2780, 1 h.
Data set [10] can be described thus: Cytotoxicity against mouse NIH/3T3 cells assessed as inhibition of cell viability for 48 hrs in dark by MTT assay. The format is cell-based. Conditions: NIH3T3, 48 h.
Data set [11] in a line: Cytotoxicity against mouse NIH/3T3 cells assessed as inhibition of cell viability for 48 hrs in 1.05 J/cm'2 UV-A irradiation by MTT assay. It is filed as cell-based. The conditions noted are these: NIH3T3, light or radiation study.
The nature of data set [12]: Cytotoxicity against mouse NIH/3T3 cells assessed as inhibition of cell viability for 72 hrs in dark by MTT assay. The conditions noted are these: NIH3T3, 72 h. It is filed as cell-based.
Data set [13] can be described thus: Cytotoxicity against mouse NIH/3T3 cells assessed as inhibition of cell viability for 72 hrs in 1.05 J/cm'2 UV-A irradiation by MTT assay. Conditions: NIH3T3, light or radiation study. The format is cell-based.
Data set [14] relates to A2780. The data set is described as follows: Drug uptake in human A2780 cell nucleus at 3 uM irradiated for 1 hr followed by incubated with 0.1 uM SytoRed for 35 mins. It is filed as ADME, cell-based. Conditions: a2780, 1 h.
Data set [15] has as its system A2780. As to the kind of experiment: Drug uptake in human A2780 cell lysosome assessed per focused cells at 3 uM irradiated for 1 hr followed by incubated with LysoTracker. It is filed as ADME, cell-based. The conditions noted are these: a2780, 1 h.
The subject of data set [16] is A2780. As to the kind of experiment: Drug uptake in human A2780 cell mitochondria assessed per focused cells at 3 uM irradiated for 1 hr followed by incubated with 0.1 uM MitoRed for 15 mins. The conditions noted are these: a2780, 1 h. The format is ADME, cell-based.
The test system of data set [17] is A2780. The data set is described as follows: Induction of apoptosis in human A2780 cells assessed as effect on cell morphology at 1 uM for 1 hr in dark measured after 4 hrs by fluorescence microscopy. It is filed as functional, cell-based.
For data set [18], the system named is A2780. As to the kind of experiment: Induction of apoptosis in human A2780 cells assessed as volume and condensation of DNA chromatin at 1 uM for 1 hr in 1.05 J/cm'2 UV-A irradiation measured after 4 hrs by fluorescence microscopy. The format is functional, cell-based.
For data set [19], the system named is A2780. The data set is described as follows: Induction of apoptosis in human A2780 cells assessed as blebbing of cell membrane at 1 uM for 1 hr in 1.05 J/cm'2 UV-A irradiation measured after 24 hrs by fluorescence microscopy. It is filed as functional, cell-based.
Data set [20] has as its system A2780. The data set is described as follows: Induction of apoptosis in human A2780 cells assessed as DNA ladder formation at 1 uM for 1 hr in 1.05 J/cm'2 UV-A irradiation measured after 4 hrs by agarose gel. It is filed as functional, cell-based.
Data set [21] deals with A2780. The data set is described as follows: Induction of apoptosis in human A2780 cells assessed as DNA ladder formation at 1 uM after 4 hrs in dark by agarose gel. It is filed as functional, cell-based.
Data set [22] deals with A2780. As to the kind of experiment: Cell cycle arrest in human A2780 cells assessed as cells at sub G0 phase at 1 uM after 4 hrs in dark by PI staining/flow cytometry. It is filed as functional.
In data set [23] the test system is A2780. The data set is described as follows: Cell cycle arrest in human A2780 cells assessed as cells at sub G0 phase at 1 uM for 1 hr in 1.05 J/cm'2 UV-A irradiation measured after 4 hrs by PI staining/flow cytometry. It is filed as functional.
The test system of data set [24] is A2780. As to the kind of experiment: Cell cycle arrest in human A2780 cells assessed as cells at S phase at 1 uM for 1 hr in 1.05 J/cm'2 UV-A irradiation measured after 4 hrs by PI staining/flow cytometry. The format is functional.
For data set [25], the system named is A2780. The data set is described as follows: Drug uptake in human A2780 cell nucleus at 0.5 uM irradiated for 1 hr followed by incubated with 0.1 uM SytoRed for 35 mins. The format is ADME, cell-based. Conditions: a2780, 1 h.
Data set [26] has as its system A2780. As to the kind of experiment: Drug uptake in human A2780 cell mitochondria assessed per focused cells at 0.5 uM irradiated for 1 hr followed by incubated with 0.1 uM MitoRed for 15 mins. The format is ADME, cell-based. The conditions noted are these: a2780, 1 h.
Data set [27] has as its system A2780. As to the kind of experiment: Drug uptake in human A2780 cell mitochondria assessed per focused cells at 0.5 uM for 1 hr in dark by incubated with 0.1 uM MitoRed for 15 mins. It is filed as ADME, cell-based. Conditions: a2780, 1 h.
For data set [28], the system named is A2780. As to the kind of experiment: Drug uptake in human A2780 cell lysosome at 0.5 uM irradiated for 1 hr followed by incubated with LysoTracker relative to non-irradiated cells. It is filed as ADME, cell-based. Conditions: a2780, 1 h.

What is called IC50 is the concentration needed to halve the response being measured. Turning to `Nc1ccc2cc3ccc(N)cc3nc2c1`, the IC50 amounted to 0.48 µM in data set [1], 0.33 µM in data set [2], 0.18 µM in [3] and 0.1 µM in [4].
Regarding `CCCCCCN1C(=O)CN/C1=N\c1ccc2cc3ccc(/N=C4\NCC(=O)N4CCCCCC)cc3nc2c1.Cl`, the concentration for half-maximal inhibition (IC50) in data set [5] was determined as 0.77 µM; in data set [6] it was 0.64 µM; in data set [1], 15.7 µM; in data set [2], 1.58 µM; in data set [3] it was 9.58 µM; in data set [4] it was 1.26 µM. Also, the result in data set [7] was Active. Moreover, in data set [8], the Activity entry is recorded as “Non-toxic”.
As to `CCCCCN1C(=O)CN/C1=N\c1ccc2cc3ccc(/N=C4\NCC(=O)N4CCCCC)cc3nc2c1.Cl`, the Drug uptake entry was “Active” in data set [9]; “Not Active” in data set [14]; 6% in [15]; 7% in data set [16]; “Not Active” in data set [25]; 2% in [26]. The Drug uptake in data set [27] turned out to be 7%; in data set [28], 24%. Also, the IC50 was found to be 0.64 µM in data set [5]; 0.59 µM in data set [6]; 19.5 µM in data set [1]; 1.43 µM in [2]; 13.8 µM in data set [3]; 1.09 µM in data set [4]. The IC50 in data set [10] is > 50 µM; in data set [11] it was > 30 µM; in data set [12], > 50 µM; in [13] it was 28.4 µM. Also, the result in data set [7], in data set [18], in [19] and in data set [20] was Active. Besides, the Activity result in [8] was “Non-toxic”; in [22], 1.42%; in data set [23], 7.69%; in [24], 43%. For the same compound, the result in data set [17] and in [21] was inactive.
